Reference: patent US6916432B2, “Hair bleach composition and hair dye composition” (Kao Corporation, priority 2000, dated 2005)

Experiments:
[1] = physchem
[2] = partition coefficient (octanol-water) (log P) at 25° C.; conditions: for logP: octanol/water

SMILES	logP [1]	logP [2]	also measured
CC(O)CCO (centres unmarked) [1,3-butanediol]	-1.4	–	–
CC(O)COc1ccccc1 (centres unmarked) [1-phenoxy-2-propanol]	–	1.1	–
OCCOCc1ccccc1 [2-benzyloxyethanol]	–	1.2	–
CCOCCO [2-ethoxyethanol]	–	-0.2	–
OCCOc1ccccc1 [2-phenoxyethanol]	1.2	–	–
CCN1CCCC1=O [N-ethylpyrrolidone]	–	-0.2	–
CN1CCCC1=O [N-methylpyrrolidone]	–	-0.5	–
OC1CCCCC1 [cyclohexanol]	1.2	–	–
CCCCOCCOCCO [diethylene glycol mono-n-butyl ether]	–	0.9	–
OCCOCCO [diethylene glycol]	-1.3	–	–
CCCCOCCO [ethylene glycol mono-n-butyl ether]	0.8	–	–
OCC(O)CO [glycerin]	–	-2.2	–
COCCOCCO [methoxydiglycol]	–	–	log P (at 25° C.) ([2]; octanol-water, 25° C.): −0.7
CC(O)CO (centres unmarked) [propylene glycol]	–	-1.1	–
